Experimental data: patent US10556860B2, “hTERT modulators and methods of use” (Arizona Board of Regents on Behalf of the University of …, priority 2015, dated 2020)
Entries after “also recorded” stand apart in the source; their conditions may differ.

Experiments:
[1] = system: pGL3 constructs that contain the G124A, G124/125A, G138/139A, and G146A mutations; assay: Luciferase assay, somatic mutant constructs in MCF7 cells; assay type: cell-based, human; details: 24 h
Experimental: Luciferase assay. From gDNA extracted from HeLa cells, the hTERT core promoter region, including −350 bp to +12 from the transcription start site, was amplified using a pair of primers, including KpnI and NheI restriction sites, for cloning of pGL3-hTERT with WT promoter sequence. Mutant constructs were generated by PCR-based site-directed mutagenesis. The sequence of each construct was confirmed by sequencing analysis. MCF7 cells in 24-well plate were transfected with 200 ng of pGL3 construct and 5 ng of pRL-TK by Fugene® HD Transfection Reagent and then incubated for 6 h. Media were replaced by fresh ones and the cells were treated with GTC365 or BRACO-19. The same volume of DMSO served as a control. After 24 h of incubation, cells were lysed by passive lysis buffer (Promega) and subjected to dual-luciferase assay (Promega) using an FB12 luminometer. The ratio of firefly to renilla luciferase activity was normalized to the DMSO to obtain the relative luciferase activity.
The effect of GTC365 on the somatic mutants in the hTERT promoter region was also examined by transfecting cells with pGL3 constructs that contain the G124A, G124/125A, G138/139A, and G146A mutations.

[2] = system: normal human melanocytes (NHM-002); assay: Viability of normal human melanocytes; assay type: cell-based; details: 1.25, 2.5 and 5 μM, 72 h
Experimental: FIGS. 13A-13C are a set of graphs showingselective reduction in viability (A) and hTERT expression (B) in melanoma cells carrying hTERT core promotor mutations. NHM-002 (normal human melanocytes) and a G124A mutant cell line were treated with vehicle, 1.25, 2.5, and 5 μM GTC365 for 72 h. Viability was reduced in hTERT mutant melanoma cells by 50% (left). […] (C) Differential response to GTC365 in WT and promoter mutant cell lines.
Next, to assess the selectivity of GTC365 for hTERT-dependent cancer cells relative to normal precursorcells, we compared the effects of a range of […] on viability at 72 h in normal humanmelanocytes (NHM-002) relative to those of UACC-903, aG124A mutant (FIG. 13A). […] To confirm that the reduction in cell viability was aresult of hTERT downregulation, we performed reverse transcription and qPCR to measure the mRNA level of hTERT expression in cells treated with DMSO or 5 μMGTC365. hTERT expression was reduced by 41% in themelanoma cell line after 72 h but was undetectable in normalmelanocytes, even in the absence of GTC365 (FIG. 13B). Finally, tobroadly assess the selectivity of GTC365 for hTERT promotermutant versus WT cells, we conducted a 6-point 72 h MTSproliferation assay to determine EC50s in 14 additional melanoma cell lines with characterized TERT promoter status([…]) (FIG. 13C). […]

[3] = system: G124/125A mutant hTERT 5-12 fragment; assay: Single-molecule laser tweezer unfolding, G124/125A mutant; assay type: biochemical, human; details: 2 μM, 10 mM Tris, 100 mM KCl, pH 7.4; single- and double-stranded template
Experimental: Single-molecule tweezer. Preparation of the DNA construct. The DNA construct that contains the single-stranded hTERT 5-12 fragment was prepared by sandwiching the target sequence between two double-stranded DNA handles. Five deoxythymidines were added at both ends of the hTERT 5-12 fragment to reduce the interference from the double-stranded DNA handles on the target sequence. Briefly, the 2690-base-pair double-stranded DNA handle was prepared through restriction enzyme digestion of the pEGFP vector (Clontech, Mountain View, Calif.). In the first step, the vector was digested by Sad and Eagl restriction enzymes, followed by purification with agarose gel. The EagI end of the DNA fragment was labeled with digoxigenin using terminal deoxynucleotidyl transferase. […]
Single-molecule force-ramp assay. […] After this, the two beads were moved apart to increase the tension on the DNA tether with a loading rate of 5.5 pN/s, and the force-extension (F-X) curves were recorded using the LabVIEW program (National Instruments Corp., Austin, Tex.).
The F-X curves were filtered by Savitzky-Golay function with a 10 ms time constant in the MATLAB program (The Math Works, Natick, Mass.). […] The change-in-contour length (ΔL) was calculated based on the Δx through the worm-like chain model (equation 1). […]

## N=C(N)NCCCS(=O)(=O)Nc1ccc(Nc2c3ccccc3nc3cc([N+](=O)[O-])ccc23)cc1 [GTC365]
[1]
  luciferase activity of the mutants: decreased luciferase activity of the mutants in a dose-dependent manner
[2]
  viability change: minimal viability change; also recorded: minimal reduction
[3]
  full-length G-rich species (>36 nt/bp) population: recovered
